IC50 data for one compound are collected here from patent US4451464A, “Trifluoromethyl substituted tricyclic quinazolinones useful as tranquilizers” (Sandoz, Inc., priority 1982, dated 1984).

For the assay, the target named is calf brain benzodiazepine receptors (calf brain cortex). Nature of the assay: Flunitrazepam Receptor Binding Assay, FBA TEST No. 2 (inhibition of specific 3H-flunitrazepam binding). The note with it: 1.5 nM [3H]-Flunitrazepam, 15 min at 0° C., read-out: IC50 (concentration which inhibits specific binding of 3H-Flunitrazepam by 50%). The protocol:
Substantially similar results are obtainable in a Flunitrazepam Receptor Binding Assay as described by Chang et al., Eur. J. Pharmacol., 48, 213 (1978): when carried out with the non-substantive modifications evident from the following description (hereinafter FBA TEST No. 2): Fresh calf brain cortex is homogenized in a 19 fold volume of Tris-HCl buffer pH 7.4, using a Brinkman Polytron PT 20 and centrifuged at 50'000 g for […]. The pellets are frozen at -20° C. and resuspended in a 400 fold volume of Tris-buffer pH 7.4 before use for the binding assay. The assay mixtures consist of 1.8 ml of homogenate (corresponding to 4.5 mg of original tissue), 0.1 ml [^3 H]-Flunitrazepam (final concentration 1.5 nM), and 0.1 ml of buffer for determination of total binding or 0.1 ml of unlabelled Flunitrazepam (final concentration 1 μM) for determination of nonspecific binding, respectively. To assess the potency of various drugs in inhibiting specific binding, drugs are added (instead of buffer) to give 5 to 9 different concentrations between 1 nM and 10 μM, each in duplicate. After incubation for 15 min at 0° C., the assay mixtures are rapidly filtered through Whatman GF/B filters and washed twice with 5 ml of ice cold Tris-buffer. The filters are counted in Rialuma on a LKB Rach-Beta Liquid Scintillation Counter. […]

Take `CCCCN1CCn2c1nc1ccc(C(F)(F)F)cc1c2=O` [Example 2, 1-n-butyl-7-trifluoromethyl-2,3-dihydro-imidazo[2,1-b]quinazolin-5(1H)-one]: the IC50 was found to be 15 nM.
